The results in this text go back to US20190192517A1, “TREATMENT OF SQUAMOUS CELL CARCINOMAS WITH INHIBITORS OF ERK” (Kura Oncology, Inc., priority 2016, published 2019).

In experiment [1] the test system is LU1868 primary human NSCLC tissues. Description: Patient-derived xenograft model of squamous NSCLC: LU1868. To be noted: daily and Q2D dosing schedules. The class given is in vivo, human (in BALB/C nude mice). The protocol: (§1) Example 1: Efficacy studies in patient-derived xenograft models of squamous NSCLC. Tumor fragments (2-4 mm in diameter) from stock mice inoculated with LU1868 or LU0009 primary human NSCLC tissues were inoculated subcutaneously into BALB/C nude mice. The mice were stratified into groups when the average tumor size reached about 200 mm^3. […] Tumor volumes were measured twice weekly in two dimensions using a caliper, with volume expressed in mm^3 (mean+/−SEM) using the formula […], where a and b are the long and short diameters of the tumor, respectively.
(§2) Responses were classified as “tumor stasis” if tumors grew ≤10% during the dosing period. Many SCC patient-derived xenograft models retain comorbid properties of the original tumors from which they were derived, such as induction of cachexia and spontaneous ulceration, that negatively impact the physiology of the host animal and reduce tolerability to exogenous agents, such as therapeutic drugs. […] Dosing holidays were necessary during periods when the mouse had lost ≥10% of body weight until the weight of the mouse returned to baseline. […] Where TGI was 70-85% and no doses were missed, activity was classified as “borderline”, and any TGI levels below 70% were classified as “resistant”.
A general note: Xenograft models place foreign cells or tissue in a host animal.

Experiment [2] concerns LU0009 primary human NSCLC tissues. Description: Patient-derived xenograft model of squamous NSCLC: LU0009. It is filed as in vivo, human (in BALB/C nude mice). To be noted: Q2D or 2QW schedules. The protocol: as §1, §2
In experiment [3] the test system is ES0191 primary human ESCC tissues. Description: Patient-derived xenograft model of ESCC: ES0191. The class given is in vivo, human (in BALB/C nude mice). To be noted: weekly schedule. The protocol: (§3) Example 2: Efficacy studies in patient-derived xenograft models of ESCC. The general procedure outline in Example 1 was followed. […] Gene copy number and gene expression were assessed as described in Example 1.

For experiment [4], the system named is ES0215 primary human ESCC tissues. Kind of experiment: Patient-derived xenograft model of ESCC: ES0215. The class given is in vivo, human (in BALB/C nude mice). To be noted: Q2D or QW schedules. The protocol: as §3
Experiment [5] has as its system HN0635 primary human HNSCC tissues. Description: Patient-derived xenograft model of HNSCC: HN0635. It is filed as in vivo, human (in BALB/C nude mice). To be noted: Q2D or QW schedules. The protocol: (§4) Example 3: Efficacy studies in patient-derived xenograft models of HNSCC. The general procedure outline in Example 1 was followed. […] Gene copy number and gene expression were assessed as described in Example 1.

Experiment [6] has as its system HN2221 primary human HNSCC tissues. Description: Patient-derived xenograft model of HNSCC: HN2221. It is filed as in vivo, human (in BALB/C nude mice). To be noted: weekly dosing. The protocol: as §4
For experiment [7], the system named is HN1391 primary human HNSCC tissues. Description: Patient-derived xenograft model of HNSCC: HN1391. It is filed as in vivo, human (in BALB/C nude mice). The protocol:
Example 5: Efficacy studies in patient-derived xenograft modes of HNSCC. The general procedure outline in Example 1 was followed. […] Dosing was discontinued to observe tumor regrowth, then restarted on the same dosing schedule on day 56. […] This activity was maintained for 25 days on treatment at either 120 mg/kg Q2D or 300 mg/kg QW. When dosing was discontinued, tumor stasis was maintained for 10-20 days, but eventually all of the tumors regrew. Regrowth was allowed to proceed for 2-3 weeks, until some individual tumors exceeded 1600 mm^3, then therapy was restarted. Strikingly, all of the retreated tumors regressed, decreasing in size by 27-66% in the subsequent 35 days.

In experiment [8] the test system is HN3067 primary human HNSCC tissues. Kind of experiment: Patient-derived xenograft model of HNSCC: HN3067. The class given is in vivo, human (in BALB/C nude mice). From the text: Example 6: Efficacy studies in patient-derived xenograft models of HNSCC. The general procedure outline in Example 1 was followed. […] Dosing was discontinued to observe tumor regrowth.

The test system of experiment [9] is HNSCC patient-derived xenograft models exhibiting CCND1 amplification. Kind of experiment: Efficacy studies in patient-derived xenograft models of HNSCC (Example 14). It is filed as in vivo, human (in BALB/C nude mice). To be noted: 300-350 mg/kg QW PO. From the text: Example 14: Efficacy studies in patient-derived xenograft models of HNSCC. The general procedure outline in Example 1 was followed.

The test system of another experiment is A375 LacZ. Description: Models of clinical B-Raf and MEK inhibitor resistance, CellTiter-Glo 72 hours: A375 LacZ. It is filed as cell-based. Particulars: Homo sapiens, A-375. The protocol:
(§5) Example 11: Efficacy studies in models of clinical B-Raf and MEK inhibitor resistance. Human melanoma cell lines were obtained from ATCC or DSMZ (e.g., A375, MM383 BRAF V600E and MM127 NRAS Q61R). A375 cells were engineered to overexpress LacZ, BRAF V600E (BRAF V600E amp), or the NRAS mutant NRAS Q61R. The cell lines were grown to confluency, washed with Tumor Cell Media (DMEM+10% FBS or IMDM+20% FBS), and plated in 90 μL Tumor Cell Media at 5,000-10,000 cells/well. […] Plates were incubated for 72 hours at 37° C. and 5% CO2. A volume of 100 μL of CellTiter-Glo® reagent was added to each well and plates were mixed for 2 minutes on an orbital shaker. The plates were allowed to stand at room temperature for 20 minutes before measuring the luminescent signal of each well.
(In general: In ATP-based viability assays light output follows the ATP content of the culture.)

Another experiment deals with A375 NRAS Q61R. Description: Models of clinical B-Raf and MEK inhibitor resistance, CellTiter-Glo 72 hours: A375 NRAS Q61R. It is filed as cell-based. To be noted: Homo sapiens, A-375. The protocol: as §5
The subject of experiment [10] is A375 V600E amp (BRAF V600E amp). Description: Models of clinical B-Raf and MEK inhibitor resistance, CellTiter-Glo 72 hours: A375 V600E amp. It is filed as cell-based. Particulars: Homo sapiens, A-375. The protocol: as §5, with “Human” for “Example 11: Efficacy studies in models of clinical B-Raf and MEK inhibitor resistance. Human”
The next experiment has as its target T1, ERK2 enzyme (Homo sapiens, UniProt P28482).
T1 construct: purchased Life Technologies
Description: Inhibition assay of ERK (Z'-LYTE kinase assay, Ser/Thr 3 peptide, 100 μM ATP). To be noted: in vitro. The class given is biochemical. The protocol:
Example 9: Inhibition Assays of ERK. The inhibition of ERK activity by the compounds disclosed herein was determined using the Z′-LYTE kinase assay kit (Life Technologies) with a Ser/Thr 3 peptide substrate (Life Technologies) according to manufacturer's instructions. […] The IC50 values for the compounds were determined with 3-fold serial dilutions in duplicate. The compounds were first diluted in 1:3 dilutions in 100% DMSO at 100× the desired concentration, and then further diluted (1:25) in 20 mM HEPES buffer (Invitrogen) to make 4× solutions prior to adding to the enzyme solution. The final DMSO concentration in the assay was 1%. Final reaction volume was […] in 384-well plates. Kinase reactions were conducted for 1 hour followed by the assay development reaction (1 hour) in a 384 well plate format (20 μL/well).

Molecules are shown by their SMILES.

T1 sequence (P28482 whole entry): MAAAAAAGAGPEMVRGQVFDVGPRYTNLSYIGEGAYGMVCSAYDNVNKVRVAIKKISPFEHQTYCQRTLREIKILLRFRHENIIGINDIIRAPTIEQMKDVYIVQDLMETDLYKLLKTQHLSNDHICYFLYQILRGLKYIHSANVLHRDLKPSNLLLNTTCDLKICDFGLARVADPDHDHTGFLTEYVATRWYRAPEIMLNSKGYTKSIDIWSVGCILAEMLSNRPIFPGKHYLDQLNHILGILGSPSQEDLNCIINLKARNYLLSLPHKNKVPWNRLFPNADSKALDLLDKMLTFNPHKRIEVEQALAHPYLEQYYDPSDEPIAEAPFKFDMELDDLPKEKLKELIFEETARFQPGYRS

In the case of `O=C1Nc2cc3[nH]nc(-c4ccncc4)c3cc2CN1Cc1ccccc1` [KO-947], the “Tumor response (tumor volume)” value in [1] is “tumor regression”; in [2], “only modest inhibition of tumor growth”; in experiment [3], “tumor regression was initially seen on a weekly schedule, with some regrowth late in the experiment resulting ultimately in tumor stasis”; in [4], “only modest inhibition of tumor growth”; in [6], “only modest inhibition of tumor growth”; in [8] (all six animals, 120 mg/kg Q2D or 300 mg/kg QW, 40 days) it was “robust tumor regression”. Also, in experiment [5], the “Animals with tumor regression” value is recorded as 5 of 6. In experiment [7] (120 mg/kg Q2D or 300 mg/kg QW, maintained for 25 days), the “Tumor response when treatment was initiated” value is “regression and tumor stasis”. Moreover, the “Time tumor stasis was maintained after dosing was discontinued” value in [7] (after 25 days on treatment) lay within 10 to 20 days. Moreover, the “Decrease in size of retreated tumors” value in experiment [7] (therapy restarted on day 56, subsequent 35 days) is given as 27-66%. Also, the “Animals with no evidence of remaining viable tumor” value in [8] (sixty days after dosing was discontinued) is recorded as 4 of 6. In addition, in [9], the “Models responsive to treatment” value is “Four out of six”.

As for `CCCS(=O)(=O)Nc1ccc(F)c(C(=O)c2c[nH]c3ncc(-c4ccc(Cl)cc4)cc23)c1F` [Vemurafenib], the IC50 – broadly, the concentration at which inhibition is half-maximal – in the experiment with A375 LacZ is 4200 nM; with A375 NRAS Q61R, > 10000 nM; in experiment [10] it was > 10000 nM.

Regarding `Cc1cc(-c2n[nH]c3cc4c(cc23)CN([C@@H]2CCCN(Cc3c(F)cccc3F)C2)C(=O)N4)ccn1` [Compound 143], on ERK2 enzyme, the IC50 is < 500 nM.

Take `[2H]c1c([2H])c([2H])c(C([2H])([2H])N2CCC[C@@H](N3Cc4cc5c(-c6ccnc(C)c6)n[nH]c5cc4NC3=O)C2)c([2H])c1[2H]` [Compound 165]: on ERK2 enzyme, the half-inhibitory concentration (IC50) is < 500 nM.

For the compound `Cn1cc(-c2n[nH]c3cc4c(cc23)CN([C@@H]2CCCN(Cc3ccccc3)C2)C(=O)N4)cn1` [Compound 285], at ERK2 enzyme, the IC50 was < 500 nM.

Regarding `CC(=O)Nc1cccc(-n2c(=O)n(C3CC3)c(=O)c3c(Nc4ccc(I)cc4F)n(C)c(=O)c(C)c32)c1` [Trametinib], the values for the IC50 (in the experiment with A375 LacZ; with A375 NRAS Q61R; in [10]) were 7 nM, 77 nM and 300 nM, respectively.

As to `Cc1ncc(-c2n[nH]c3cc4c(cc23)CN([C@@H]2CCCN(Cc3ccc(F)cc3F)C2)C(=O)N4)cn1` [Compound 293], the IC50 on ERK2 enzyme is < 500 nM.

For `COc1cc(-c2n[nH]c3cc4c(cc23)CN([C@@H]2CCCN(Cc3ccccc3)C2)C(=O)N4)ccn1` [Compound 270], the IC50 against ERK2 enzyme was < 500 nM.

Regarding `Cc1cc(-c2n[nH]c3cc4c(cc23)CN([C@@H]2CN(C(C)C)C[C@H]2c2ccccc2)C(=O)N4)ccn1` (racemic) [Compound 279], the IC50 against ERK2 enzyme is < 500 nM.

Take `Cc1cc(-c2n[nH]c3cc4c(cc23)CN(Cc2cc(F)cc(F)c2)C(=O)N4)cc(C)n1` [Compound 225]: the IC50 against ERK2 enzyme was < 500 nM.

`Cc1cc(-c2n[nH]c3cc4c(cc23)CN([C@@H]2CCN(CC(F)(F)F)C2)C(=O)N4)cc(C)n1` [Compound 237]: the half-maximal inhibitory concentration (IC50) against ERK2 enzyme was < 500 nM.

On to `COc1ncc(-c2n[nH]c3cc4c(cc23)CN(Cc2cccc(Cl)c2)C(=O)N4)cn1` [Compound 68], for which the IC50 against ERK2 enzyme was < 500 nM.

In the case of `Cc1ncc(-c2n[nH]c3cc4c(cc23)CN([C@@H]2CCCN(Cc3ccccc3)C2)C(=O)N4)cn1` [Compound 292], on ERK2 enzyme, the half-inhibitory concentration (IC50) is < 500 nM.

Take `Cc1cc(-c2n[nH]c3cc4c(cc23)CN([C@@H]2CCCN(Cc3ccc(F)cc3)C2)C(=O)N4)ccn1` [Compound 151]: the half-inhibitory concentration (IC50) against ERK2 enzyme was < 500 nM.

As for `Cc1ccc(-c2n[nH]c3cc4c(cc23)CN([C@@H]2CCCN(Cc3ccccc3)C2)C(=O)N4)cn1` [Compound 275], the IC50 at ERK2 enzyme is < 500 nM.

As for `COc1ncc(-c2n[nH]c3cc4[nH]c(=O)c(C5CCCN(Cc6ccccc6)C5)cc4cc23)cn1` (stereo not shown) [Compound 364], the half-inhibitory concentration (IC50) at ERK2 enzyme is < 500 nM.

Consider `Cc1cc(-c2n[nH]c3cc4[nH]c(=O)c(C(C)c5ccc(F)cc5)cc4cc23)ccn1` (stereo not shown) [Compound 197], for which, on ERK2 enzyme, the IC50 was < 500 nM.

In the case of `COc1ncc(-c2n[nH]c3cc4c(cc23)CN([C@@H]2CCCN(Cc3ccccc3)C2)C(=O)N4)cn1` [Compound 104], the IC50 at ERK2 enzyme was < 500 nM.

With `Cc1cc(-c2n[nH]c3cc4c(cc23)CN([C@@H]2CCCN(Cc3cccc(F)c3)C2)C(=O)N4)ccn1` [Compound 184], at ERK2 enzyme, the 50% inhibitory concentration (IC50) was < 500 nM.
